Columns and labels:
primary astrocytes = assay: IL-6 release from primary astrocytes of wild type and YAC128 mice (ELISA); type: cell-based, mouse; details: CSE-stimulated wild type and YAC128 astrocytes
Method: Whole brains were obtained from post-natal 1 to 3 day old wild type and YAC128 mouse pups on the FVB/N strain background and placed in Hanks Balanced Salt Solution (HBSS; Invitrogen) on ice. Meninges were removed and the remaining brain tissue was placed into growth medium (DMEM [Invitrogen], 10% FBS [PAA], 1% L-glutamine [Invitrogen], 1% penicillin/streptomycin [Invitrogen]), and homogenized using a 5 ml pipette. Cells of each brain were pelleted, re-suspended in growth medium and transferred into a T150 flask, cultured at 37° C. with 5% CO2. Growth medium was replaced after 24 hr and then every 7 days. After 18 to 21 days in culture, loosely attached microglia were harvested and seeded at 1.4×10^5 cells/ml with pre-incubated conditioned media into 96-well PRIMARIA™ tissue culture plates (BD Falcon). Adherent astrocytes were plated at 1.4×10^5 cells/ml in 10% FBS media for 24 hr in 96-well PRIMARIA™ tissue culture plates. After the initial isolation microglia and astrocytes were seeded at a density of 1.4×10^5 cells/ml into 96-well PRIMARIA™ tissue culture plates. […] Cells were lysed and total protein levels were determined using the microBCA kit (Thermo Scientific). Supernatants were analyzed using mouse IL-6 ELISA (e-Biocience) and IL-6 levels were normalized to total protein levels.

EGFP-NRF2 = assay: Live-cell imaging of HEK293 cells expressing EGFP-NRF2 and KEAP1-mCherry; type: cell-based, human; details: 1 μM for 1 hr
Method: To examine the effect of MIND4-17 on the stabilization and sub-cellular localization of NRF2 in live cells, HEK293 cells (200,000 per dish) grown in α-MEM supplemented with 10% heat-inactivated FBS on 6-cm glass dishes, were co-transfected with constructs encoding EGFP-NRF2 and KEAP1-mCherry using Lipofectamine 2000 (Invitrogen) as described [Baird, 2013]. Cells were imaged 24 hr post-transfection before and after 1 hr-exposure to 1 μM MIND4-17. All images were acquired by confocal microscopy using a laser-scanning confocal microscope (LSM780; Carl Zeiss). The microscope was equipped with a thermostated chamber suitable to maintain the live cells and optics at constant 37° C. Imaging was performed using a 63× oil immersion NA 1.4 Plan-Apochromat objective from Zeiss.

[1] = system: Drosophila expressing mutant Htt exon 1; assay: Drosophila model of HD, photoreceptor neuron (rhabdomere) survival; type: in vivo; details: 10 μM, treated vs. untreated flies, day 7 after eclosion
Method: Compound treatment of Drosophila HD model and efficacy analysis of MIND4 effects on photoreceptor neurons was performed as described (Steffan et al., 2001; Pallos et al., 2008). Drosophila models have been important in the genetic identification of pathological and neuroprotective mechanisms as well as for testing therapeutic candidates in HD (Marsh et al., 2003). In wild type flies, seven rhabdomeres (photoreceptor neurons) are visible in the adult eye, whereas chronic expression of mHTTex1 causes progressive degeneration of these neurons, detected as a reduction of rhabdomere number. Rhabdomeres were counted on day 7 after eclosion in animals treated with varying doses of MIND4. The indicated numbers of flies were scored for each condition (n) with the number of ommatidia scored indicated in parentheses. Trial 1: DMSO=11(449); MIND4 1 μM=3(112); MIND4 10 μM=9(337); […]=9(364). […]
MIND4 was tested for its potential efficacy by monitoring the degeneration of photoreceptor neurons in the eyes of Drosophila expressing expanded repeat HTT exon 1 protein in all neurons beginning during embryogenesis (Steffan et al., 2001). […] Chronic expression of mutant HTT causes progressive degeneration of these neurons, detected as a reduction of rhabdomeres number. Rhabdomeres were counted on day 7 after eclosion in animals treated with varying doses of MIND4. […]

O=[N+]([O-])c1ccc(Sc2nnc(COc3ccccc3)n2-c2ccccc2)nc1 [MIND4-17]
IL-6 release (primary astrocytes): dose-response reduction of IL-6 release
Stabilization and sub-cellular localization of NRF2 (EGFP-NRF2): stabilization and nuclear translocation of EGFP-NRF2

O=[N+]([O-])c1ccc(Sc2nnc(COc3ccccc3)n2-c2ccccc2)c2ncccc12 [MIND4, 5-nitro-8-{[5-(phenoxymethyl)-4-phenyl-4H-1,2,4-triazol-3-yl]thio}quinoline]
Relative rescue of photoreceptor neurons, Trial 1 [1]: 22.6%
Relative rescue of photoreceptor neurons, Trial 2 [1]: 20.7%

Reference: patent publication US9737525B2, “Small molecule activators of NRF2 pathway” (The General Hospital Corporation, priority 2013, dated 2017)
